Where a SMILES comes first, the peptide text is derived from it. The star is where a group is joined. Cbz = O=C(OCc1ccccc1)*
Tested on: HIF-1α
Assay: Western blot of HIF-1α expression in HCT116 cells
Format: cell-based
Details: for HIF-1α expression / HIF-1α expression increased by Smurf2 knockdown, effect of treatment: HCT116 cells; for HIF-1α expression: normoxia; for HIF-1α expression increased by Smurf2 knockdown, effect of treatment: Smurf2 siRNA 48 hours, normoxia 6 hours, Ro3306 5 μM, palbociclib 10 μM, abemaciclib 1 μM
Experimental: HCT116 cells were obtained from American Type Culture Collection (ATCC) and were maintained according to ATCC recommendation in McCoy's 5A medium (Hyclone) with 10% fetal bovine serum (FBS) (Hyclone) and 1% penicillin/streptomycin (P/S) (Corning). Cells were regularly tested for mycoplasma and authenticated. Cells were maintained at 37° C. in 5% CO2. Hypoxia treatment was performed in a hypoxia chamber (In vivo2, Ruskinn) which maintains 0.5% O2 and 5% CO2 at 37° C.
Plasmid expression was performed by 24 hours transfection using Opti-MEM (Thermo Fisher Scientific) and Lipofectamine 2000 (Life Technologies). Knockdown experiments were performed by siRNA transfection for 48 hours with Opti-MEM and Lipofectamine RNAiMAX (Life Technologies), according to the manufacturer's protocol.
Treated cells were lysed in RIPA buffer (Sigma). Protein concentrations were determined using a BCA Protein Assay Kit (Life Technologies). Equal amounts of total protein were boiled with NuPAGE™ LDS sample buffer (Thermo Fisher Scientific) and reducing agent (Invitrogen) or 2-mercaptoethanol. Samples were analyzed with SDS-PAGE. Proteins were transferred to an Immobilon-P PVDF membrane (EMD Millipore). Primary and secondary antibodies were added in order. Signals were detected after addition of the ECL western blotting substrate (Thermo Fisher Scientific).

Structure (SMILES) | HIF-1α expression upon Smurf2 overexpression (HCT116 cells transfected with myc-Smurf2 plasmid, 6 hours, dose-dependent) | HIF-1α expression (2 μM, 6 hours) | HIF-1α expression (5 μM, 6 hours) | HIF-1α expression increased by Smurf2 knockdown, effect of treatment | HIF-1α expression increased by Smurf2 knockdown, effect of treatment (listed as Ro3306)
CC(C)C[C@@H](C=O)NC(=O)[C@H](CC(C)C)NC(=O)[C@H](CC(C)C)NC(=O)OCc1ccccc1 [MG132] (Cbz-Leu-Leu-Leu-aldehyde) | partially rescued | increased | more robustly | – | –
O=C1NC(=NCc2cccs2)S/C1=C\c1ccc2ncccc2c1 [Ro-3306] | – | – | – | not reversed | further increased

Reference: patent publication US20230183356A1, “HIF-1a MODULATORS AND USES THEREOF” (Brown University, priority 2021, published 2023)
